From patent US4129591A, “Ureida-phenylenebis(substituted imino)multianionic substituted dinaphthalene sulfonic acids and salts” (American Cyanamid Company, priority 1976, dated 1978)
Counter-ions that a name gives are not always drawn.

Legend:
[1] = test system: hereditary angioneurotic edema; conditions: New England Journal of Medicine, 286, 808-812 (1972); cited from earlier work
whole complement = experiment: Complement level reduction in dosed guinea pigs (capillary tube assay); type: in vivo; conditions: guinea pig, 200 mg/kg
complement system = conditions: literature; cited from earlier work
[2] = test system: shunt pathway activated by cobra venom factor; experiment: Test, Code 036 (C-Shunt inhibitor), lysis of human erythrocytes in autologous serum; type: cell-based
Source text: (§1) An active inhibitor protects C2 from C1 and C4; (ii) Test, Code 035 (C3-C9 inhibitor) -- This test determines the ability of the late components of human complement (C3-C9) to lyse EAC 142 in the presence of appropriate dilutions of the test compound. An active inhibitor protects EAC 142 from lysis by human C3-C9; (iii) Test, Code 036 (C-Shunt inhibitor) -- In this test human erythrocytes rendered fragile are lysed in autologous serum via the shunt pathway activated by cobra venom factor in the presence of appropriate dilutions of the test compound. Inhibition of the shunt pathway results in failure of lysis; (iv) Forssman Vasculitis Test -- Here, the well known complement dependent lesion, Forssman vasculitis, is produced in guinea pigs by intradermal injection of rabbit anti-Forssman antiserum. The lesion is measured in terms of diameter, edema and hemorrhage and the extent to which a combined index of these is inhibited by prior intraperitoneal injection of the test compound at 200 mg/kg is then reported, unless otherwise stated; (v) Forssman Shock Test -- Lethal shock is produced in guinea pigs by an i.v. injection of anti-Forssman antiserum and the harmonic mean death time of treated guinea pigs is compared with that of simultaneous controls; (vi) Complement Level Reduction Test -- In this test, the above dosed guinea pigs, or others, are bled for serum and the complement level is determined in undiluted serum by the capillary tube method of U.S. Pat. No. 3,876,376 and compared to undosed control guinea pigs; and (vii) Cap 50 Test -- Here, appropriate amounts of the test compound are added to a pool of guinea pig serum in vitro, after which the undiluted serum capillary tube assay referred to above is run. The concentration of compound inhibiting 50% is reported.

[3] = test system: late components of human complement (C3-C9); experiment: Test, Code 035 (C3-C9 inhibitor), lysis of EAC 142; type: cell-based; conditions: human C3-C9, EAC 142, in vitro
Source text: as §1

activated human C1 = target: T1, activated human C1 (Homo sapiens, UniProt P09871); experiment: Test, Code 026 (C1 inhibitor); type: biochemical; conditions: human C1, in vitro
T1 construct: fluid-phase human C2 cleavage in presence of C4
T1 sequence (P09871 16-688): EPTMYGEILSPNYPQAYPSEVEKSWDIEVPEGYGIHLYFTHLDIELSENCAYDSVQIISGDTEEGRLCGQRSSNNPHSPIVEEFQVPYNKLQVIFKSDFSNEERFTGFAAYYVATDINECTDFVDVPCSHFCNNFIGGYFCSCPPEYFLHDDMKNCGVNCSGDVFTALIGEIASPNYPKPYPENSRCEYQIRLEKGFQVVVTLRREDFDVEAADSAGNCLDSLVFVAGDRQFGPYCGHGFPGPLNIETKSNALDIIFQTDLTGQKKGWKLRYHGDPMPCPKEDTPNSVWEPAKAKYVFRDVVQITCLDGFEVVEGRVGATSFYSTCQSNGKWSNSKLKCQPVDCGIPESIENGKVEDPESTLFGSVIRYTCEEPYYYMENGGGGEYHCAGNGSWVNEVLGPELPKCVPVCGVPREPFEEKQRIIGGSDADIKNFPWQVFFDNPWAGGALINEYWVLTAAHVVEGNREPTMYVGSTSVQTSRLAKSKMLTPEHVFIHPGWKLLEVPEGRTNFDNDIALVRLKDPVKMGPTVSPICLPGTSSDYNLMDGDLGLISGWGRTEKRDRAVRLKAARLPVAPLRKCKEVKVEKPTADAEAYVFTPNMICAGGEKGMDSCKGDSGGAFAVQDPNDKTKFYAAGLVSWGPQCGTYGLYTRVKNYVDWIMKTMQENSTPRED
T1 sequence (P00736 18-705 partner): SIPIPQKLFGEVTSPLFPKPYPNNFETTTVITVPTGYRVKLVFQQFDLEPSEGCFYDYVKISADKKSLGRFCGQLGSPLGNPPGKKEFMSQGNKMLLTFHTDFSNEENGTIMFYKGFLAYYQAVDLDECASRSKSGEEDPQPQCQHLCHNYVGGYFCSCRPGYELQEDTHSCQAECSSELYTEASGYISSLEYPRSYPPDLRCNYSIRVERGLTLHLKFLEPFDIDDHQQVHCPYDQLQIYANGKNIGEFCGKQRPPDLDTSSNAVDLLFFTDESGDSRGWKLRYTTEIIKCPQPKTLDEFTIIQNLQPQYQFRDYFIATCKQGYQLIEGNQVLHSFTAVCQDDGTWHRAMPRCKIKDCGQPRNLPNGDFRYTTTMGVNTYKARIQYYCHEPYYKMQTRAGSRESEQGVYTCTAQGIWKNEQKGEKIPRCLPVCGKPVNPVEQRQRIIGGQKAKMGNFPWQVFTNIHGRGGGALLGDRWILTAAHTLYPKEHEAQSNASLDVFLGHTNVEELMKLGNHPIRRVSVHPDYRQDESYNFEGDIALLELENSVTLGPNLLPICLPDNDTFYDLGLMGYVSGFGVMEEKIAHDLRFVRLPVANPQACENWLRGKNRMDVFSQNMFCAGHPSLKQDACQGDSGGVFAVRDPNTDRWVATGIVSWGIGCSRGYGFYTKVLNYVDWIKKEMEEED
T1 sequence (P02745 23-245 partner): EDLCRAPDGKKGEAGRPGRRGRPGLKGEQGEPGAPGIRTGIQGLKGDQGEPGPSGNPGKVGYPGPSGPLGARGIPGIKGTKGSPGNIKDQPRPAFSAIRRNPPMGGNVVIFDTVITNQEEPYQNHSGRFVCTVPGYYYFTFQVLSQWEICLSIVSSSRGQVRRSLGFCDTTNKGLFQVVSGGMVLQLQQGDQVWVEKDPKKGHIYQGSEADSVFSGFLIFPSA
T1 sequence (P02746 28-253 partner): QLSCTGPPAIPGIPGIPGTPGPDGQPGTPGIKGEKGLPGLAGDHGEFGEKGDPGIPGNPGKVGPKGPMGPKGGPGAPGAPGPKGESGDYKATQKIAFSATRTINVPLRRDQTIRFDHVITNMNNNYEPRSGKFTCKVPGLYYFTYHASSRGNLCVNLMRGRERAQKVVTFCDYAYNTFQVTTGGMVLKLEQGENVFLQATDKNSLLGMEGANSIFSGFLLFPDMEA
T1 sequence (P02747 29-245 partner): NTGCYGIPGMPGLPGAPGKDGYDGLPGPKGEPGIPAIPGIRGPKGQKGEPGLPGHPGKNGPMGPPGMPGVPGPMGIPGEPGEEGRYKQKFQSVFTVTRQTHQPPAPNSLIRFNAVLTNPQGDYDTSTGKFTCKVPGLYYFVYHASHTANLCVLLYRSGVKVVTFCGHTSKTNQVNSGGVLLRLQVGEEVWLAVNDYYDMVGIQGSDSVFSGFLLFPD
Source text: An active inhibitor protects C2 from C1 and C4; (ii) Test, Code 035 (C3-C9 inhibitor) -- This test determines the ability of the late components of human complement (C3-C9) to lyse EAC 142 in the presence of appropriate dilutions of the test compound. An active inhibitor protects EAC 142 from lysis by human C3-C9; (iii) Test, Code 036 (C-Shunt inhibitor) -- In this test human erythrocytes rendered fragile are lysed in autologous serum via the shunt pathway activated by cobra venom factor in the presence of appropriate dilutions of the test compound. Inhibition of the shunt pathway results in failure of lysis; (iv) Forssman Vasculitis Test -- Here, the well known complement dependent lesion, Forssman vasculitis, is produced in guinea pigs by intradermal injection of rabbit anti-Forssman antiserum. […]

NCCCCCC(=O)O [6-aminohexanoic acid]
use in treatment of hereditary angioneurotic edema [1]: used with success

O=C(Nc1cc(C(=O)Nc2ccc(S(=O)(=O)O)c3cc(S(=O)(=O)O)cc(S(=O)(=O)O)c23)cc(C(=O)Nc2ccc(S(=O)(=O)O)c3cc(S(=O)(=O)O)cc(S(=O)(=O)O)c23)c1)Nc1cc(C(=O)Nc2ccc(S(=O)(=O)O)c3cc(S(=O)(=O)O)cc(S(=O)(=O)O)c23)cc(C(=O)Nc2ccc(S(=O)(=O)O)c3cc(S(=O)(=O)O)cc(S(=O)(=O)O)c23)c1 [8,8',8",8"'-[Carbonylbis[imino-5,1,3-benzenetriylbis(carbonylimino)]]tetrakis[1-3,5-naphthalenesulfonic acid] dodecasodium salt]
% change in complement level (whole complement; i.p., time 30): -98%
% change in complement level (whole complement; i.p., time 60): -98%

heparin
anticomplementary effect / complement inhibition (complement system): anticomplementary effect

O=C(Nc1cc(C(=O)Nc2cc(S(=O)(=O)O)cc3cc(S(=O)(=O)O)cc(O)c23)cc(C(=O)Nc2cc(S(=O)(=O)O)cc3cc(S(=O)(=O)O)cc(O)c23)c1)Nc1cc(C(=O)Nc2cc(S(=O)(=O)O)cc3cc(S(=O)(=O)O)cc(O)c23)cc(C(=O)Nc2cc(S(=O)(=O)O)cc3cc(S(=O)(=O)O)cc(O)c23)c1 [4,4',4",4'"-[Carbonylbis[imino-5,1,3-benzenetriylbis(carbonylimino)]]tetrakis[5-hydroxy-2,7-naphthalenedisulfonic acid] octasodium salt]
Shunt Inhibition 036* Wells [2]: +1 Wells
% change in complement level (whole complement; i.p., time 30): -69%
% change in complement level (whole complement; i.p., time 60): -92%
% change in complement level (whole complement; i.p., time 120): -98%

O=C(Nc1cc(C(=O)Nc2cc(S(=O)(=O)O)cc3cc(S(=O)(=O)O)ccc23)cc(C(=O)Nc2cc(S(=O)(=O)O)cc3cc(S(=O)(=O)O)ccc23)c1)Nc1cc(C(=O)Nc2cc(S(=O)(=O)O)cc3cc(S(=O)(=O)O)ccc23)cc(C(=O)Nc2cc(S(=O)(=O)O)cc3cc(S(=O)(=O)O)ccc23)c1 [4,4',4",4'"-{Carbonylbis[imino-5,1,3-benzenetriylbis(carbonylimino)]}tetrakis[2,7-naphthalenedisulfonic acid] octasodium salt]
Shunt Inhibition 036* Wells [2]: +3 Wells
C-Late 035* Wells [3]: +1 Wells
C-Late 035* Wells (class symbol N) [3]: N (N means inactive, O Wells)

NC[C@H]1CC[C@H](C(=O)O)CC1 [trans-4-(aminomethyl)-cyclohexanecarboxylic acid]
use in treatment of hereditary angioneurotic edema [1]: used with success

Nc1ccc2cc(S(=O)(=O)O)cc(O)c2c1N=Nc1ccc(NC(=O)Nc2ccc(N=Nc3c(N)ccc4cc(S(=O)(=O)O)cc(O)c34)c(S(=O)(=O)O)c2)cc1S(=O)(=O)O [chlorazol fast pink, 3,3-(carbonyldiimino)bis[6-(2-amino-8-hydroxy-6-sulfo-1-naphthylazo)benzenesulfonic acid], tetrasodium salt]
anticomplementary effect / complement inhibition (complement system): anticomplementary effect

O=C(Nc1cc(C(=O)Nc2cc(S(=O)(=O)O)cc3cc(S(=O)(=O)O)cc(S(=O)(=O)O)c23)cc(C(=O)Nc2cc(S(=O)(=O)O)cc3cc(S(=O)(=O)O)cc(S(=O)(=O)O)c23)c1)Nc1cc(C(=O)Nc2cc(S(=O)(=O)O)cc3cc(S(=O)(=O)O)cc(S(=O)(=O)O)c23)cc(C(=O)Nc2cc(S(=O)(=O)O)cc3cc(S(=O)(=O)O)cc(S(=O)(=O)O)c23)c1 [8,8',8",8'"-[Carbonylbis[imino-5,1,3-benzenetriylbis(carbonylimino)]]tetrakis[1,3,6-naphthalenetrisulfonic acid]dodecasodium salt]
Shunt Inhibition 036* Wells [2]: +5 Wells
C-Late 035* Wells [3]: +3 Wells
% change in complement level (whole complement; i.p., time 30): -88%
% change in complement level (whole complement; i.p., time 60): -85%
% change in complement level (whole complement; i.p., time 120): -92%
% change in complement level (whole complement; i.v., time 2): -98%
% change in complement level (whole complement; i.v., time 30): -97%
% change in complement level (whole complement; i.v., time 120): -89%
C1 026* Wells (activated human C1): +9 Wells

Cc1ccc(C(=O)Nc2ccc(S(=O)(=O)O)c3cc(S(=O)(=O)O)cc(S(=O)(=O)O)c23)cc1NC(=O)c1cccc(NC(=O)Nc2cccc(C(=O)Nc3cc(C(=O)Nc4ccc(S(=O)(=O)O)c5cc(S(=O)(=O)O)cc(S(=O)(=O)O)c45)ccc3C)c2)c1 [Suramin]
use in treatment of hereditary angioneurotic edema [1]: used with success
anticomplementary effect / complement inhibition (complement system): competitive inhibitor of the complement system
